Results taken from patent US10092548B2, “Pharmaceutical compositions for preventing or treating angiogenic diseases comprising inhibitors of NUP153 gene expression or NUP153 activity as active ingredient” (INDUSTRY-ACADEMIC COOPERATION FOUNDATION, YONSEI UNIVERSITY, priority 2013, dated 2018).

Assays:
[1] = system: vascular endothelial growth factor (VEGF)-induced angiogenesis; details: in vitro and in vivo; Kim et al., 2010; cited from earlier work
VEGF mRNA = VEGF mRNA level in treated zebrafish embryos by RT-PCR; assay type: in vivo; details: compared with DMSO-treated controls
Method: (§1) Zebrafish were maintained on 14 hours light/dark cycle at 28° C. All experiments involving zebrafish were performed according to the National Institute of Health guidelines. Embryos were collected and raised in Ringer's solution according to standard protocol (Westerfield, 1995). Zebrafish were injected in Ringer's solution at the one-cell stage with morpholino oligonucleotides (MO). MO was obtained from Gene Tools (Philomath, Oreg.) with the following sequence to block 5′ translation of NUP153: 5′-[…]-3′ (SEQ ID NO:2) and splicing of NUP153: 5′-[…]-3′ (SEQ ID NO:3), respectively. DMSO and OMe-Syn stock solution (10 mM in DMSO) were dissolved in ringer's solution to appropriate concentrations. […] Embryos were added to the solutions at one cell stage. Tricaine supplied in Ringer's solution (0.6%, w/v) was used to anesthetize the embryos for imaging. Microscopy images of zebrafish were taken with Fluoview FV1000, Olympus.
(§2) The present inventors previously reported that OMe-Syn, an anti-angiogenic small molecule, inhibited VEGF-induced angiogenesis in vitro and in vivo (Kim et al., Biochem. Biophys. Res. Commun 399, 20-23 (2010)). The anti-angiogenic activity of OMe-Syn was further investigated using fli1a:EGFP transgenic zebrafish, a well-established model organism for studying angiogenesis through visualization of blood vessel development.

NUP153-expressing phage = target: T1, NUP153-expressing phage (Homo sapiens, UniProt P49790); assay: Phage binding and phage competition assay
T1 construct: host or cells: T7 phage clone isolated from human cDNA libraries (colon tumor, lung tumor, heart)
T1 sequence (P49790 245-326): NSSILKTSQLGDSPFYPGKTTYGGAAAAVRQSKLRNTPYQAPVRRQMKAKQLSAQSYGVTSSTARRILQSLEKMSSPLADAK

[2] = target: T2, purified N-terminal partial domain of NUP153 (Homo sapiens, UniProt P49790); assay: Surface plasmon resonance (SPR) analysis, BIAcore 2000; assay type: binding
T2 construct: a PCR-amplified N-terminus (amino acids 235-326) cDNA of NUP153 (NM_005124); inferred from the pET-28a vector and Ni-NTA purification; made in house; host or cells: Rosetta (DE3) E. coli
T2 sequence (P49790 235-326): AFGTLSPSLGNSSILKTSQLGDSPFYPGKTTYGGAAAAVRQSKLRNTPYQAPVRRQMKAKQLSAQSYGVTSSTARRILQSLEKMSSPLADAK
Excerpt: To obtain the recombinant NUP153 protein from bacteria, a PCR-amplified N-terminus (amino acids 235-326) cDNA of NUP153 (NM_005124) was into the EcoRI/SalI site of pET-28a expression vector (Novagen, Billerica, Mass.). Rosetta™ (DE3) E. coli strains were transformed with the plasmid and N-terminus partial domain of NUP153 protein was purified using Ni-NTA agarose bead (Quiagen, Hilden, Germany). Bead bound protein was eluted with elution buffer containing high concentration of imidazole according to the manufacturer's instructions.
Biotin and biotinylated OMe-Syn were sequentially immobilized on the surface of a streptavidin-coated sensor chip. Molecular interaction analysis was performed using the BIAcore 2000 (BIAcore AB) as described previously (Shim et al., Chem. Biol 11, 1455-1463 (2004)). The SPR response curves were analyzed with BIAcore Evaluations software, version 3.1. The apparent association and dissociation constants were calculated from the kinetic constants equations: KA=ka/kd, KD=kd/ka
To examine the binding affinity of OMe-Syn to NUP153, the N-terminal partial domain of NUP153, which corresponds to phage coding sequences (FIG. 2E), was cloned and expressed in Escherichia coli. The cloning and purification of recombinant NUP153 is described in the experimental procedures. […]

NPC = assay: Preliminary investigation of NPC integrity under OMe-Syn treatment
[3] = system: retinal neovascularization; assay: Oxygen-induced retinopathy (OIR), counting vascular lumens; assay type: in vivo, C57BL/6 mice; details: mice, 20 μM in 1 μL PBS intravitreously on P14, read at P17, compared to control group
Excerpt: OIR was induced as described by Smith et al. (Smith et al., Invest. Ophthalmol. Vis. Sci 35, 101-111 (1994)) with some modifications (Zhang et al., Diabetologia 44, 757-765 (2001)). Briefly, newborn mice were arbitrarily assigned to experimental and control groups. At postnatal day 7 (P7), pups (8-10 pups) in the experimental group were exposed to hyperoxia (75±0.5% 02) for 5 days (P7-P12) and then returned to normoxia (room air) for 6 days. Neovascularization occurs upon return to normoxia and peaks at P17. To assess the anti-angiogenic activity of OMe-Syn, the pups were injected intravitreously with 20 μM OMe-Syn in 1 μL PBS on P14, when maximum retinal neovascularization began.
At P17, the eyes were removed, fixed in 4% paraformaldehyde in 0.1 M phosphate buffer for 24 hours, and embedded in paraffin. Sagittal sections of 5 μm, each 30 μm apart, were cut through the cornea parallel to the optic nerve. The sections were stained with hematoxylin and eosin to assess retinal vasculature via light microscopy (Carl Zeiss, Chester, Va., USA). Any vascular lumens on the vitreal side of the inner limiting membrane were counted in at least 10 sections from each eye by two independent observers blind to treatment. The average intravitreal vessels/section was calculated for each group. There were at least six animals in each group.

[4] = system: intersegmental vessel (ISV) angiogenesis of zebrafish embryos; assay: ISV angiogenesis in fli1a:EGFP transgenic zebrafish embryos; assay type: in vivo; details: 30 hpf
Method: as §1, §2
The present inventors further examined the function of NUP153 in vivo in intersegmental vessel (ISV) angiogenesis of zebrafish embryos using a morpholino oligonucleotide (MO) specific to NUP153. NUP153-specific MOs that block the splicing (n=31) or translation (n=28) of NUP153 were injected into fli1a:EGFP transgenic embryos at the one-cell stage. The blocking of NUP153 splicing was monitored by reverse transcription-polymerase chain reaction (RT-PCR) (FIG. 6A).

CNC[C@H](OC)c1ccc(O)cc1 [OMe-Syn, R-(−)-β-O-Methylsynephrine]
inhibition of VEGF-induced angiogenesis [1]: inhibit vascular endothelial growth factor (VEGF)-induced angiogenesis in vitro and in vivo
VEGF mRNA level (VEGF mRNA): reduced
binding of NUP153-expressing phage to immobilized compound (NUP153-expressing phage; phage binding assay, versus biotin): specifically bound to OMe-Syn
phage competition: binding of phage to immobilized OMe-Syn after pre-incubation (NUP153-expressing phage; pre-incubation with OMe-Syn 50, 100 μM for 1 hour): blocked the binding of the phage to immobilized OMe-Syn in a dose-dependent manner
Kd [2]: 2.4 nM
SPR binding of purified NUP153 to immobilized compound ([2]; compound immobilized on sensor chip, purified NUP153 20 μM): specifically bound
NPC integrity and NPC protein interactions (NPC): leaves the NPC intact and does not disrupt NPC protein interactions
number of vascular lumens (retinal neovascularization) [3]: effectively reduced number of vascular lumens
viability / toxicity of embryos [4]: without compromising the viability
number of complete intersegmental vessels (ISVs) and angiogenic sprouts ([4]; OMe-Syn 2.5 and 5 μM, 5′-MO 8 ng, sp-MO 12 ng): decreased number of complete intersegmental vessels (ISVs) in a dose-dependent manner
